Test results from publication PMC2741015 (Molecular and biochemical parasitology, 2009).

Tests used:
[1] = biological target: T1, P. falciparum SHMT (PfSHMT) (Plasmodium falciparum, UniProt Q8I566); assay: PfSHMT activity inhibition by antifolates; format: biochemical
T1 sequence (Q8I566 1-442): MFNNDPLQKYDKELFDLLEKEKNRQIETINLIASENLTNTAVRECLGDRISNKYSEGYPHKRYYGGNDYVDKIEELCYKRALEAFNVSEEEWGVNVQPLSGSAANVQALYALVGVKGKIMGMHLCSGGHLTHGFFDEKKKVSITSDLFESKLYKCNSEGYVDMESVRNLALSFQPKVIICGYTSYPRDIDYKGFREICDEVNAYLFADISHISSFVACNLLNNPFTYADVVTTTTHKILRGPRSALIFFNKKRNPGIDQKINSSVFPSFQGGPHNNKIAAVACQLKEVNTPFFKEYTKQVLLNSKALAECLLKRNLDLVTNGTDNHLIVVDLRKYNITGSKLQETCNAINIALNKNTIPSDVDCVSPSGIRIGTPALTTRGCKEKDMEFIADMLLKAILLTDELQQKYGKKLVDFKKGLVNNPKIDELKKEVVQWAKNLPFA

[2] = biological target: PfSHMT protein interaction with SHMT or DHFR-TS mRNA (Plasmodium falciparum, UniProt Q8I566); assay: RNA-protein interaction gel shift, competition with substrates; format: binding; conditions: 500 nM SHMT protein, 0.5 nM labeled RNA; 125 μM PLP, 3 mM serine, 3 mM THF
[3] = biological target: P. falciparum SHMT apo enzyme (Plasmodium falciparum, UniProt Q8I566); assay: Activity of apo PfSHMT with and without PLP; format: biochemical; conditions: apo enzyme with vs without PLP (Fig 4A)
[4] = biological target: T1, P. falciparum SHMT (PfSHMT); assay: Michaelis-Menten constants of PfSHMT substrates; format: biochemical
SEC = biological target: the molecule itself; assay: SEC

`Cc1nc2ccc(CN(C)c3ccc(C(=O)N[C@@H](CCC(=O)O)C(=O)O)s3)cc2c(=O)[nH]1` [D1694] was tested, and the IC50 [1] was over 500 µM.

For `Cc1ncc(COP(=O)(O)O)c(C=O)c1O` [PLP, pyridoxal 5’-phosphate], the “Effect on PfSHMT protein interaction with SHMT or DHFR-TS mRNA” value [2] was “not abrogated” and the “Enzyme activity of apo enzyme with PLP added to the reaction” value [3] was “increased by more than ten fold”.

For `CN(Cc1cnc2nc(N)nc(N)c2n1)c1ccc(C(=O)N[C@@H](CCC(=O)O)C(=O)O)cc1` [methotrexate], the IC50 [1] was over 500 µM.

Molecule `Nc1nc2[nH]cc(CCc3ccc(C(=O)N[C@@H](CCC(=O)O)C(=O)O)cc3)c2c(=O)[nH]1` [pemetrexed] has an IC50 [1] of over 500 µM.

`CCc1nc(N)nc(N)c1-c1ccc(Cl)cc1` [pyrimethamine] was tested, and the IC50 [1] was over 500 µM.

With `N[C@@H](CO)C(=O)O` [serine] the “Effect on PfSHMT protein interaction with SHMT or DHFR-TS mRNA” value [2] was “not abrogated”.

For tetrahydrofolate [THF], the Vmax ([4]; from velocity vs. substrate fit) was 188.5 pmol/min and the Km ([4]; read-out: Km, P falciparum, Table 1, P. falciparum SHMT) was 3.4 mM.

B1: Plasmodium falciparum serine hydroxymethyltransferase with an N-terminal histidine tag (enzyme, Plasmodium falciparum (strain 3D7), UniProt Q8I566 1-442, looked up)
chain: MFNNDPLQKYDKELFDLLEKEKNRQIETINLIASENLTNTAVRECLGDRISNKYSEGYPHKRYYGGNDYVDKIEELCYKRALEAFNVSEEEWGVNVQPLSGSAANVQALYALVGVKGKIMGMHLCSGGHLTHGFFDEKKKVSITSDLFESKLYKCNSEGYVDMESVRNLALSFQPKVIICGYTSYPRDIDYKGFREICDEVNAYLFADISHISSFVACNLLNNPFTYADVVTTTTHKILRGPRSALIFFNKKRNPGIDQKINSSVFPSFQGGPHNNKIAAVACQLKEVNTPFFKEYTKQVLLNSKALAECLLKRNLDLVTNGTDNHLIVVDLRKYNITGSKLQETCNAINIALNKNTIPSDVDCVSPSGIRIGTPALTTRGCKEKDMEFIADMLLKAILLTDELQQKYGKKLVDFKKGLVNNPKIDELKKEVVQWAKNLPFA
With B1 the “stoichiometry N” value (SEC) was 2.
